Test results from patent publication US10172816B2, “Method of treating chronic obstructive pulmonary disease (CPD) with verproside” (YUNGJIN PHARMACEUTICAL CO., LTD, priority 2013, dated 2019).

Tests used:
[1] = system: Mucin 5A/C; assay: Acrolein-induced Mucin 5A/C expression in A549 cells (RT-PCR); format: cell-based, human; conditions: pre-treated 1 hour, then 30 nM acrolein, dose dependent
Method: The diluted A549 cell line (ATCC, CCL-185) with DMEM medium supplemented with 5% phenol red and FBS (Fetal Bovine Serum) was seeded in 6 well plates (4×10^5 cells/well) to adhere thereto for a night, and 20 and 40 microgram/ml of ATC2 extract were treated with A549 cell line for 1 hours. 30 nM acrolein was treated therewith to induce Mucin 5A/C expression. The medium was removed the cell, washed with PBS solution and homogenized with Trizol (Invitrogen, CA, USA) for the isolation of ribonucleic acids from the cells for 5 mins. the cells were collected, transferred to centrifugal separator, completely mixed with chloroform for 15 seconds, left alone for 3 mins and centrifuged for 15 mins at the speed of 14,000 rpm. The supernatant containing ribonucleic acid was transferred to new tube and mixed with isopropylalcohol for 10 mins. The solution was centrifuged to discard the supernatant and 75% ethanol was added to the precipitate. The precipitate was centrifuged for 5 mins at the speed of 10,000 rpm and the supernatant was discarded. The precipitated ribonucleic acid was dried at room temperature for 20 mins. […] After the quantification of ribonucleic acid, the complementary DNA was synthesized using by 1 microgram of RNA and RT-kit (Omniscript RT kit, Qiagen, USA) and the synthetic cDNA was used as a template. […]

[2] = target: ADBR2 (beta-2 adrenergic receptor) GPCR (Homo sapiens, UniProt P07550); assay: ADBR2 GPCR-targeting cell-based assay (spot formation); conditions: 20 micromole; U2OS cells stably expressing ADBR2 GPCR
Chain of ADBR2 (beta-2 adrenergic receptor) GPCR (P07550 whole entry): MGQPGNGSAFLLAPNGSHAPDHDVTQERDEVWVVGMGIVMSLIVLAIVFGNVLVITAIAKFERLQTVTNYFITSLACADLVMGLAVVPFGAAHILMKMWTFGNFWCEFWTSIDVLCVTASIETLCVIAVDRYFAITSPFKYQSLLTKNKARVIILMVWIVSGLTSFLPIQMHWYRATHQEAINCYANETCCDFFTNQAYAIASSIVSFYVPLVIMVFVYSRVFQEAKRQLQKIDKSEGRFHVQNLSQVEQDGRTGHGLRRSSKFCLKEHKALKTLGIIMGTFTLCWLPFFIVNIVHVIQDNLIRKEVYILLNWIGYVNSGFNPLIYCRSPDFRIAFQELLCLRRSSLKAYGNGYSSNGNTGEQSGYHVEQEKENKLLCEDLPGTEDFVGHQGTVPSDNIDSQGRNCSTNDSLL

[3] = system: inflammatory immunocytes and neutrophils in BALF; assay: COPD mouse model (LPS+CS, i.t.): immunocytes, neutrophils and T lymphocytes in BALF; format: in vivo, BALB/c mice; conditions: 15 mg/kg, p.o.
Method: Specific pathogen-free male BALB/c mice (about 18-20 g), aged 8 weeks, which were routinely screened serologically for relevant respiratory pathogens, were purchased from ORIENT Co. (www.orient.co.kr, Seoul, Korea) and bred allowing to access freely to feed and water in breeding room controlling the temperature of 22±2° C., and humidity of 55±15% at the light-dark cycle for 12 hours and acclimated with the experimental environment for 1 week. […] 8 weeks aged BALB/c male mice was anaesthetized with 7% chloral hydrate and 100 μl of LPS+CS mixture {LPS (100 μg/ml)+standard cigarette extract (Cigarette smoking (CS), 4 mg/ml)=1:1} was inhaled to mice (i.t.) for three weeks once a week to prepare COPD animal model. Briefly, 100 μl of LPS+CS mixture was evenly inhaled to nose and mouth of fastened mice (i.t). […] After the end of experiment, the blood, BALF, and pneumonocyte of each mice were isolated and collected to test. After blood collection, 1 ml of FBS-free/DMEM medium contained in injector was injected to the trachea of autopsied mice, and the mice was fixed with string to circulate the blood three times and isolate the cell from BALF. […] The isolated PBMCs, BAL (Bronchoalveolar lavage), and pneumocyte were adjusted to 5×10^5 cells and performed to immunofluorescence staining at 4° C. PE-anti-CD3e (553064, BD Pharmingen, USA), FITC-anti-CD8 (553031, BD Pharmingen, USA), PE-anti-CD4 (553047, BD Pharmingen, USA), PE-anti-Gr-1 (553128, BD Pharmingen, USA), and FITC-anti-neutrophil (ab55453, Abcam, UK) were added thereto, respectively, and reacted for 30 mins in ice. After the reaction, the cells were washed with phosphate buffered physiological saline solution more than three times and the cell frequency (%) of CD3^+CD4^+& CD3^+CD8^+, and Gr-1^+Neutrophil^+ was determined using by Cell Quest program (643274, BD Biosciences, USA) of the flow cytometer (FACSCalibur, Becton, Dickinson, USA) and the absolute total number in each tissue was calculated by applying total cells.

[4] = system: KC/CXCL-1 (Chemokines Gro-α); assay: COPD mouse model (LPS+CS): KC/CXCL-1 in BALF by ELISA; format: in vivo, BALB/c mice; conditions: 15 mg/kg, p.o.
Method: (§1) 8 weeks aged BALB/c male mice was anaesthetized with 7% chloral hydrate and 100 μl of LPS+CS mixture {LPS (100 μg/ml)+standard cigarette extract (Cigarette smoking (CS), 4 mg/ml)=1:1} was inhaled to mice (i.t.) for three weeks once a week to prepare COPD animal model. Briefly, 100 μl of LPS+CS mixture was evenly inhaled to nose and mouth of fastened mice (i.t). […] After the end of experiment, the blood, BALF, and pneumonocyte of each mice were isolated and collected to test. The level of IL-1β, IL-6, TNF-a, IL-17, MCP-1, and GRO-a (BioSource, USA) in BALF isolated from mice was determined by enzyme-linked immuno-sorbent assay. Respective antibodies against L-1β, IL-6, TNF-a, IL-17, MCP-1, and GRO-a were diluted with a coating buffer solution (291195, R&D System, USA), coated on a microwell and left alone for overnight at 4° C. Each well was washed three times with washing buffer solution and 100 μl of 10-fold diluted serum was added thereto. […] The solution was left alone for 30 mins in shadow and added with 50 μl of stop solution (DY994, R&D system, USA) to determine the absorbance using by ELISA leader at 450 nm (340PC384, Molecular Devices, USA).

[5] = system: MIP-2/CXCL-2; assay: COPD mouse model (LPS+CS): MIP-2/CXCL-2 in BALF by ELISA; format: in vivo, BALB/c mice; conditions: 15 mg/kg, p.o.
[6] = system: TNF-α; assay: COPD mouse model (LPS+CS): TNF-α in BALF by ELISA; format: in vivo, BALB/c mice; conditions: 15 mg/kg, p.o.
Method: as §1

[7] = system: Mucin 5A/C; assay: Digitization of Mucin 5A/C expression in A549 cells by high content screening; format: cell-based, human; conditions: 1, 5 and 10 ng/ml, versus control medium (GM)
Method: Accordingly, the present inventors developed novel high throughput screening test by introducing high content screening system which can quantitatively determine the expression of target protein in animal cell level and in order to screening the inhibiting agent of Mucin 5AC expression, following test was performed by modifying the target activator method published on Cellomics BioApplication.
A549 cell line (ATCC, CCL-185), a epithelial cell line isolated from human lung cancer tissue was seeded on 96 well plates (5,000 cells/well) and 24 hrs after the seeding, 20 ng/ml of bFGF, 100 ng/ml of EGF, 20 micromole IGF, 5 ng/ml of TGF-beta1, 30 nanomole acrolein, 5 nanomole PMA, 1 microgram/ml, LPS and 20 ng/ml of IL-1 beta were treated therewith. The expression of Mucin 5A/C was digitized by target activator program in Cellomics apparatus.
Various concentrations of TGF-beta 1 (PeproTech, #100-21), i.e., 1, 5 and 10 ng/ml TGF-beta 1 were treated with A549 cell line (ATCC, CCL-185), and the expression of Mucin 5A/C was digitized by target activator program in Cellomics apparatus.
Various concentrations of ATC2 extract were treated with A549 cell line for 2 hours and then […] TNF-alpha (Sigma, H8916) was treated therewith for 24 hours. The expression of Mucin 5A/C was digitized by target activator program in Cellomics apparatus.

`COc1ccc(C(=O)O[C@H]2[C@@H]3C=CO[C@@H](O[C@@H]4O[C@H](CO)[C@@H](O)[C@H](O)[C@H]4O)[C@@H]3[C@@]3(CO)O[C@@H]23)cc1OC` [6-O-veratroyl catalpol, 6-O-(3,4-dimethoxybenzoly) catalpol] was tested, and the “expression of Mucin 5A/C (mRNA, RT-PCR)” value [1] was “inhibited” and the spot formation [2] was “did not show spot formation”.
`O=C(Nc1c(Cl)cncc1Cl)c1ccc(OC(F)F)c(OCC2CC2)c1` [Roflumilast, reference compound] was tested, and the “number of total immunocyte in BALF compared with control group” value [3] was “sharply reduced”, the “reduction of number of neutrophils (Diff-Quik stained, cytospin) in BALF compared with control group” value [3] was over 99.0% and the “reduction of total absolute cell number of CD8+ T cell in BALF compared with control group” value [3] was “more than 67.2%”. For the same molecule, the “reduction of total absolute cell number of Neutrophils+Gr-1+ cell in BALF compared with control group” value [3] was over 97.5%, the “reduction of chemokine KC/CXCL-1 in BALF compared with control group” value [4] was over 82.7% and the “reduction of chemokines MIP-2/CXCL-2 in BALF compared with control group” value [5] was over 81.9%. For the same molecule, the “reduction of TNF-α in BALF compared with control group” value [6] was over 65.0%.
For `O=C(O[C@H]1[C@@H]2C=CO[C@@H](O[C@@H]3O[C@H](CO)[C@@H](O)[C@H](O)[C@H]3O)[C@@H]2[C@@]2(CO)O[C@@H]12)c1ccc(O)cc1` [catalposide, 6-O-(4-hydroxybenzolyl) catalpol], the spot formation [2] was “did not show spot formation”.
For `COc1ccc(C(=O)OC2C3C=COC(OC4OC(CO)C(O)C(O)C4O)C3C3(CO)OC23)cc1O` (centres unmarked) [isovanilloyl catalpol, 6-O-(3-hydroxy-4-methoxybenzoyl)catalpol], the spot formation [2] was “did not show spot formation”.
For `COc1cc(C(=O)O[C@H]2[C@@H]3C=CO[C@@H](O[C@@H]4O[C@H](CO)[C@@H](O)[C@H](O)[C@H]4O)[C@@H]3[C@@]3(CO)O[C@@H]23)ccc1O` [picroside II, 6-O-(4-hydroxy-3-methoxybenzoly) catalpol], the spot formation [2] was “did not show spot formation”.
In the case of `COc1ccc(C(=O)O)cc1OC` [veratric acid], the spot formation [2] is reported as “did not show spot formation”.
For “TGF-beta1: TGF-beta 1 (PeproTech, #100-21)”, the “expression of Mucin 5A/C” value [7] was “more inhibited the expression of MUCSA/C than control medium”.
